# Results taken from ChEMBL document CHEMBL4177632.
# Key:
# Rattus norvegicus = organism: Rattus norvegicus; experiment: Selectivity index, ratio of IC50 for ALR1 in Wistar rat kidney to IC50 for ALR2 in Wistar rat eye lens
# [1] = target: Aldo-keto reductase family 1 member B1 (Rattus norvegicus) (UniProt P07943); experiment: Inhibition of ALR2 in Wistar rat lens assessed as reduction in glucose induced-sorbitol accumulation by measuring sorbitol level at 100 uM preincubated for 30 mins followed by glucose addition measured after 3 hrs by resazurin dye based fluorescence assay (reference value: 803.6 +/- 104.6 nmol/g)
# [2] = target: Aldo-keto reductase family 1 member B1 (Rattus norvegicus) (UniProt P07943); experiment: Inhibition of ALR2 in Wistar rat lens assessed as reduction in glucose induced-sorbitol accumulation by measuring sorbitol level at 0.1 uM preincubated for 30 mins followed by glucose addition measured after 3 hrs by resazurin dye based fluorescence assay (reference value: 803.6 +/- 104.6 nmol/g)
# [3] = target: Aldo-keto reductase family 1 member B1 (Rattus norvegicus) (UniProt P07943); experiment: Inhibition of ALR2 in Wistar rat lens assessed as reduction in glucose induced-sorbitol accumulation by measuring sorbitol level preincubated for 30 mins followed by glucose addition measured after 3 hrs by resazurin dye based fluorescence assay
# [4] = target: Aldo-keto reductase family 1 member B1 (Rattus norvegicus) (UniProt P07943); experiment: Inhibition of ALR2 in Wistar rat lens assessed as reduction in glucose induced-sorbitol accumulation by measuring sorbitol level at 1 uM preincubated for 30 mins followed by glucose addition measured after 3 hrs by resazurin dye based fluorescence assay (reference value: 803.6 +/- 104.6 nmol/g)
# [5] = tested on: CCOC(=O)N1CCc2c(c3cc(OC)ccc3n2CC(=O)O)C1; experiment: Inhibition of recombinant human AKR1B1 assessed as Km for D,L-glyceraldehyde substrate at 120 nM (reference value: 0.065+/- 0.003 […])
# [6] = tested on: CCOC(=O)N1CCc2c(c3cc(OC)ccc3n2CC(=O)O)C1; experiment: Inhibition of recombinant human AKR1B1 assessed as Km for D,L-glyceraldehyde substrate at 80 nM (reference value: 0.065+/- 0.003 […])
molecule,measurement,setting,value
CCOC(=O)N1CCc2c(c3cc(C(=O)O)ccc3n2CC(=O)O)C1,Ratio IC50,Rattus norvegicus,381
O=C(O)Cn1c2c(c3ccccc31)CN(C(=O)C1CC1)CC2,Ratio IC50,Rattus norvegicus,131
CCOC(=O)N1CCc2c(c3cc(OC)ccc3n2CC(=O)O)C1,Activity,[1],249 nmol/g
same,Activity,[2],657 nmol/g
same,inhibition,[3],Dose-dependent effect
same,Activity,[4],440 nmol/g
same,Ratio IC50,Rattus norvegicus,792
CC(=O)c1c(C)n(CC(=O)O)c2ccccc12,Ratio IC50,Rattus norvegicus,66
CC(=O)N1CCc2c(c3ccccc3n2CC(=O)O)C1,Activity,[1],184 nmol/g
same,Activity,[2],756 nmol/g
same,inhibition,[3],Dose-dependent effect
same,Activity,[4],631 nmol/g
same,Ratio IC50,Rattus norvegicus,1070
Aldo-keto reductase family 1 member B1 (Homo sapiens) (from UniProt P15121),Km,[5],22 µM
same,Km,[6],36 µM
Cc1c(C=O)c2ccccc2n1CC(=O)O,Ratio IC50,Rattus norvegicus,35
